# Target: T1, human CCR10 (Homo sapiens, UniProt P46092)
# T1 construct: expressed in transfected cells; host or cells: KJMGER8 cell (cell line derived from Namalwa cell); expression induced with 10 nmol/L β-estradiol
# T1 sequence (P46092 1-362): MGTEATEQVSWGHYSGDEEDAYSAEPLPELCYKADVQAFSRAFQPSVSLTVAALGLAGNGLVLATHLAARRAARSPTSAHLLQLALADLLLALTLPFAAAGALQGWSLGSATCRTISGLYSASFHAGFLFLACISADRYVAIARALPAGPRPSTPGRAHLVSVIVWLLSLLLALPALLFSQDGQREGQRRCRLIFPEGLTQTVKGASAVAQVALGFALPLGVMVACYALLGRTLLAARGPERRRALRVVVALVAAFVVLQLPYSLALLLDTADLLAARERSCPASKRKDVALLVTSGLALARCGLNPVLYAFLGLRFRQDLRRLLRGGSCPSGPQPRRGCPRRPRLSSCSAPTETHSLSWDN
# Assay: Calcium assay of human CCR10 (inhibition of CTACK-induced increase in intracellular calcium ion concentration in hCCR10G16 cells)
# Format: cell-based
# Settings: test compound 100 nmol/L; human recombinant CTACK; hCCR10G16 cells (KJMGER8/Namalwa-derived, Gα16 co-expressed); FLIPR or FDSS
# Procedure, shortened: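 KJMGER8-derived hCCR10G16 cells (human CCR10 plus Gα16, expression induced 24 h with 10 nmol/L β-estradiol) were dye-loaded and preincubated with compound for 30 min at 37 °C, then stimulated with CTACK (300 nmol/L stock). Calcium flux over ~5 min (max−min fluorescence) gave percent inhibition versus DMSO control.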
row,Compound,Inhibitory rate (%) for an increase in calcium ion concentration [%]
1,"Cc1cc(F)ccc1Nc1c(C(=O)N2CCC(c3ccccc3)CC2)cnc2c(S(=O)(=O)N=CN(C)C)cnn12 [a-73, N-[7-(4-Fluoro-2-methylphenylamino)-6-(4-phenylpiperidine-1-carbonyl)pyrazolo[1,5-a]pyrimidin-3-ylsulfonyl]-N,N-dimethylformimidamide]",68.9

# Same assay, conditions: test compound 100 nmol/L; human recombinant CTACK; hCCR10G16 cells (KJMGER8/Namalwa-derived, Gα16 co-expressed); FLIPR or FDSS; read-out: Inhibitory rate (%) for an increase in calcium ion concentration
row,Compound,inhibition at 0.1 µM [%]
1,"CCC(=O)NS(=O)(=O)c1cnn2c(Nc3cc(Cl)ccc3Cl)c(C(=O)N3CCC(c4ccc(F)cc4)CC3)cnc12 [a-22, N-{7-(2,5-Dichlorophenylamino)-6-[4-(4-fluorophenyl)piperidine-1-carbonyl]pyrazolo[1,5-a]pyrimidin-3-ylsulfonyl}propionamide]",> 100
2,"CCNC(=O)NS(=O)(=O)c1cnn2c(Nc3cc(Cl)ccc3Cl)c(C(=O)N3CCC(c4ccc(F)cc4)CC3)cnc12 [a-23, 7-(2,5-Dichlorophenylamino)-N-(ethylcarbamoyl)-6-[4-(4-fluorophenyl)piperidine-1-carbonyl]pyrazolo[1,5-a]pyrimidine-3-sulfonamide]",96.7
3,"CC(=O)NS(=O)(=O)c1cnn2c(Nc3cc(Cl)ccc3Cl)c(C(=O)N3CCC(c4ccc(F)cc4)CC3)cnc12 [a-24, N-{7-(2,5-Dichlorophenylamino)-6-[4-(4-fluorophenyl)piperidine-1-carbonyl]pyrazolo[1,5-a]pyrimidin-3-ylsulfonyl}acetamide]",> 100
4,"CCC(=O)NS(=O)(=O)c1cnn2c(Nc3cc(Cl)ccc3Cl)c(C(=O)N3CCC4(CC3)OCc3ccccc34)cnc12 [a-53, N-{7-(2,5-Dichlorophenylamino)-6-[3H-spiro(isobenzofuran-1,4′-piperidine)-1′-carbonyl]pyrazolo[1,5-a]pyrimidin-3-ylsulfonyl}propionamide]",> 100
5,"CCNS(=O)(=O)c1cnn2c(Nc3ccc(F)cc3C)c(C(=O)N3CCC(c4ccc(F)cc4)CC3)cnc12 [a-3, N-Ethyl-7-(4-fluoro-2-methylphenylamino)-6-[4-(4-fluorophenyl)piperidine-1-carbonyl]pyrazolo[1,5-a]pyrimidine-3-sulfonamide]",> 100
6,"COCC(=O)NS(=O)(=O)c1cnn2c(Nc3ccc(F)cc3C)c(C(=O)N3CCC(c4ccccc4)CC3)cnc12 [a-64, N-[7-(4-Fluoro-2-methylphenylamino)-6-(4-phenylpiperidine-1-carbonyl)pyrazolo[1,5-a]pyrimidin-3-ylsulfonyl]-2-methoxyacetamide]",94.2
7,"CCNC(=S)NS(=O)(=O)c1cnn2c(Nc3ccc(F)cc3C)c(C(=O)N3CCC(c4ccccc4)CC3)cnc12 [a-69, N-Ethylcarbamothioyl-7-(4-fluoro-2-methylphenylamino)-6-(4-phenylpiperidine-1-carbonyl)pyrazolo[1,5-a]pyrimidine-3-sulfonamide]",81.8
8,"O=CNS(=O)(=O)c1cnn2c(Nc3cc(Cl)ccc3Cl)c(C(=O)N3CCC(c4ccc(F)cc4)CC3)cnc12 [a-26, N-{7-(2,5-Dichlorophenylamino)-6-[4-(4-fluorophenyl)piperidine-1-carbonyl]pyrazolo[1,5-a]pyrimidin-3-ylsulfonyl}formamide]",> 100
9,"CCNS(=O)(=O)c1cnn2c(Nc3cc(C)ccc3Cl)c(C(=O)N3CCC(c4ccc(F)cc4)CC3)cnc12 [a-15, N-Ethyl-7-(2-chloro-5-methylphenylamino)-6-[4-(4-fluorophenyl)piperidine-1-carbonyl]pyrazolo[1,5-a]pyrimidine-3-sulfonamide]",87.8
10,"CCNC(=O)NS(=O)(=O)c1cnn2c(Nc3ccc(F)cc3C)c(C(=O)N3CCC4(CC3)OCc3ccccc34)cnc12 [a-43, 7-(4-Fluoro-2-methylphenylamino)-N-(ethylcarbamoyl)-6-[3H-spiro(isobenzofuran-1,4′-piperidine)-1′-carbonyl]pyrazolo[1,5-a]pyrimidine-3-sulfonamide]",92
11,"Cc1ccc(Cl)c(Nc2c(C(=O)N3CCC4(CC3)OCc3ccccc34)cnc3c(S(=O)(=O)NC(=O)C4CCC4)cnn23)c1 [a-57, N-{7-(2-Chloro-5-methylphenylamino)-6-[3H-spiro(isobenzofuran-1,4′-piperidine)-1′-carbonyl]pyrazolo[1,5-a]pyrimidin-3-ylsulfonyl}cyclobutanecarboxamide]",> 100
12,"CCC(=O)NS(=O)(=O)c1cnn2c(Nc3cc(C)ccc3F)c(C(=O)N3CCC4(CC3)OCc3ccccc34)cnc12 [a-51, N-{7-(2-Fluoro-5-methylphenylamino)-6-[3H-spiro(isobenzofuran-1,4′-piperidine)-1′-carbonyl]pyrazolo[1,5-a]pyrimidin-3-ylsulfonyl}propionamide]",> 100
13,"CCNC(=O)NS(=O)(=O)c1cnn2c(Nc3ccc(C)cc3F)c(C(=O)N3CCC4(CC3)OCc3ccccc34)cnc12 [a-49, 7-(2-Fluoro-4-methylphenylamino)-N-(ethylcarbamoyl)-6-[3H-spiro(isobenzofuran-1,4′-piperidine)-1′-carbonyl]pyrazolo[1,5-a]pyrimidine-3-sulfonamide]",> 100
14,"CCC(=O)NS(=O)(=O)c1cnn2c(Nc3ccc(F)cc3Cl)c(C(=O)N3CCC4(CC3)OCc3ccccc34)cnc12 [a-50, N-{7-(2-Chloro-4-fluorophenylamino)-6-[3H-spiro(isobenzofuran-1,4′-piperidine)-1′-carbonyl]pyrazolo[1,5-a]pyrimidin-3-ylsulfonyl}propionamide]",> 100
15,"Cc1ccc(Cl)c(Nc2c(C(=O)N3CCC(c4ccc(F)cc4)CC3)cnc3c(S(=O)(=O)NC(=O)NC4CC4(F)F)cnn23)c1 (centres unmarked) [a-37, 7-(2-Chloro-5-methylphenylamino)-N-(2,2-difluorocyclopropylcarbamoyl)-6-[4-(4-fluorophenyl)piperidine-1-carbonyl]pyrazolo[1,5-a]pyrimidine-3-sulfonamide]",> 100
16,"Cc1cc(F)ccc1Nc1c(C(=O)N2CCC(c3ccccc3)CC2)cnc2c(S(=O)(=O)NS(C)(=O)=O)cnn12 [a-71, 7-(4-Fluoro-2-methylphenylamino)-N-methylsulfonyl-6-(4-phenylpiperidine-1-carbonyl)pyrazolo[1,5-a]pyrimidine-3-sulfonamide]",88.8
17,"COCCNS(=O)(=O)c1cnn2c(Nc3ccccc3Cl)c(C(=O)N3CCC(c4ccc(F)cc4)CC3)cnc12 [a-11, 7-(2-Chlorophenylamino)-6-[4-(4-fluorophenyl)piperidine-1-carbonyl]-N-(2-methoxyethyl)pyrazolo[1,5-a]pyrimidine-3-sulfonamide]",28.9
18,"Cc1cc(F)ccc1Nc1c(C(=O)N2CCC(c3ccccc3)CC2)cnc2c(S(=O)(=O)NC(=O)C3CC3)cnn12 [a-1, N-[7-(4-Fluoro-2-methylphenylamino)-6-(4-phenylpiperidine-1-carbonyl)pyrazolo[1,5-a]pyrimidin-3-ylsulfonyl]cyclopropanecarboxamide]",93.4
19,"CC(=O)NS(=O)(=O)c1cnn2c(Nc3cc(Cl)ccc3F)c(C(=O)N3CCC(c4ccc(F)cc4)CC3)cnc12 [a-33, N-{7-(5-Chloro-2-fluorophenylamino)-6-[4-(4-fluorophenyl)piperidine-1-carbonyl]pyrazolo[1,5-a]pyrimidin-3-ylsulfonyl}acetamide]",> 100
